For one experiment, the system named is RS4;11 cells. Description: Cell proliferation assay (MTS), RS4;11 cells, 72 h. Type of experiment: cell-based. To be noted: Homo sapiens, RS4-11, 72 h. Summed up:
(§1)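 RS4;11 and DOHH2 cells at 5000 cells/well in RPMI-1640 with 10% FBS were treated with compound at 1.5–10000 nM final, nine points, at 37 °C, 5% CO2. Exposure was 72 h for RS4;11 and 120 h for DOHH2. MTS was added for 2 h, absorbance read at 490/650 nm, and IC50 calculated.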

A further experiment deals with DOHH2 cells. Description: Cell proliferation assay (MTS), DOHH2 cells, 120 h. Type of experiment: cell-based. Conditions: Homo sapiens, DOHH-2, 120 h. The method, boiled down: as §1

By IC50 is commonly meant the midpoint of a concentration-inhibition curve. A low value points to greater potency. Turning to `CC1(C)CCC(c2ccc(Cl)cc2)=C(CN2CCN(c3ccc(C(=O)NS(=O)(=O)c4cc5c(c([N+](=O)[O-])c4)N[C@H](C4CCOCC4)CO5)c(Oc4cnc5[nH]ccc5c4)c3)CC2)C1` [Example 2-213, (R)-2-((1H-pyrrolo[2,3-b]pyridin-5-yl)oxy)-4-(4-((4′-chloro-4,4-dimethyl-3,4,5,6-tetra-hydro-[1,1′-biphenyl]-2-yl)methyl)piperazin-1-yl)-N-((5-nitro-3-(tetrahydro-2H-pyran-4-yl)-3,4-dihydro-2H-benzo[b][1,4]oxazin-7-yl)sulfonyl)benzamide], the IC50 in the experiment with RS4;11 cells was determined as 8 nM; with DOHH2 cells, 41 nM.

On to `CC1(C)CCC(CN2CCN(c3ccc(C(=O)NS(=O)(=O)c4cc5c(c([N+](=O)[O-])c4)N[C@@H](Cc4ccccc4F)CO5)c(Oc4cnc5[nH]ccc5c4)c3)CC2)=C(c2ccc(Cl)cc2)C1` [Example 2-189, (S)-2-((1H-pyrrolo[2,3-b]pyridin-5-yl)oxy)-4-(4-((4′-chloro-5,5-dimethyl-3,4,5,6-tetra-hydro-[1,1′-biphenyl]-2-yl)methyl)piperazin-1-yl)-N-((3-(2-fluorobenzyl)-5-nitro-3,4-dihydro-2H-benzo[b][1,4]oxazin-7-yl)sulfo-nyl)benzamide], for which the IC50 with RS4;11 cells came out at 78 nM; in the experiment with DOHH2 cells, 148 nM.

Regarding `CN1CCN(CC[C@H]2CSc3cc(S(=O)(=O)NC(=O)c4ccc(N5CCN(CC6=C(c7ccc(Cl)cc7)CC(C)(C)CC6)CC5)cc4Oc4cnc5[nH]ccc5c4)cc([N+](=O)[O-])c3N2)CC1` [Example 3-19, (S)-2-((1H-pyrrolo[2,3-b]pyridin-5-yl)oxy)-4-(4-((4′-chloro-5,5-dimethyl-3,4,5,6-tetra-hydro-[1,1′-biphenyl]-2-yl)methyl)piperazin-1-yl)-N-((3-(2-(4-methylpiperazin-1-yl)ethyl)-5-nitro-3,4-dihydro-2H-benzo[b][1,4]thiazin-7-yl)sulfonyl)benzamide], the values for the IC50 in the experiment on RS4;11 cells and in the experiment with DOHH2 cells were 1 nM and 6 nM, respectively.

Take `CC1(C)CCC(CN2CCN(c3ccc(C(=O)NS(=O)(=O)c4cc5c(c([N+](=O)[O-])c4)N[C@@H](CNS(C)(=O)=O)CO5)c(Oc4cnc5[nH]ccc5c4)c3)CC2)=C(c2ccc(Cl)cc2)C1` [Example 2-66, (S)-2-((1H-pyrrolo[2,3-b]pyridin-5-yl)oxy)-4-(4-((4′-chloro-5,5-dimethyl-3,4,5,6-tetra-hydro-[1,1′-biphenyl]-2-yl)methyl)piperazin-1-yl)-N-((3-(methylsulfonamidomethyl)-5-nitro-3,4-dihydro-2H-benzo[b][1,4]oxazin-7-yl)sulfonyl)benzamide]: the results for the IC50 in the experiment with RS4;11 cells and in the experiment with DOHH2 cells were 18 nM and 13 nM, respectively.

For the molecule `CN(C)C[C@H]1CSc2cc(S(=O)(=O)NC(=O)c3ccc(N4CCN(CC5=C(c6ccc(Cl)cc6)CC(C)(C)CC5)CC4)cc3Oc3cnc4[nH]ccc4c3)cc([N+](=O)[O-])c2N1` [Example 3-8, (S)-2-((1H-pyrrolo[2,3-b]pyridin-5-yl)oxy)-4-(4-((4′-chloro-5,5-dimethyl-3,4,5,6-tetra-hydro-[1,1′-biphenyl]-2-yl)methyl)piperazin-1-yl)-N-((3-((dimethylamino)methyl)-5-nitro-3,4-dihydro-2H-benzo[b][1,4]thiazin-7-yl)sulfonyl)benzamide], the half-inhibitory concentration (IC50) in the experiment with RS4;11 cells is 17 nM; with DOHH2 cells, 67 nM.

For the molecule `CC1(C)CCC(CN2CCN(c3ccc(C(=O)NS(=O)(=O)c4cc5c(c([N+](=O)[O-])c4)N[C@H](CCN=S4(=O)CCOCC4)CO5)c(Oc4cnc5[nH]ccc5c4)c3)CC2)=C(c2ccc(Cl)cc2)C1` [Example 2-74, (R)-2-((1H-pyrrolo[2,3-b]pyridin-5-yl)oxy)-4-(4-((4′-chloro-5,5-dimethyl-3,4,5,6-tetra-hydro-[1,1′-biphenyl]-2-yl)methyl)piperazin-1-yl)-N-((5-nitro-3-(2-((4-oxido-1,4λ^6-ox-athian-4-lidene)amino)ethyl)-3,4-dihydro-2H-benzo[b][1,4]oxazin-7-yl)sulfonyl)ben-zamide], the values for the IC50 in the experiment with RS4;11 cells and with DOHH2 cells were 64 nM and 108 nM, respectively.

As to `CC1(C)CCC(CN2CCN(c3ccc(C(=O)NS(=O)(=O)c4cc5c(c([N+](=O)[O-])c4)N[C@@H](CC4CCOCC4)CO5)c(Oc4cnc5[nH]ccc5c4)c3)CC2)=C(c2ccc(Cl)cc2)C1` [Example 2-182, (S)-2-((1H-pyrrolo[2,3-b]pyridin-5-yl)oxy)-4-(4-((4′-chloro-5,5-dimethyl-3,4,5,6-tetra-hydro-[1,1′-biphenyl]-2-yl)methyl)piperazin-1-yl)-N-((5-nitro-3-((tetrahydro-2H-pyran-4-yl)methyl)-3,4-dihydro-2H-benzo[b] [1,4]oxazin-7-yl)sulfonyl)benzamide], the IC50 in the experiment with RS4;11 cells stood at 3 nM; with DOHH2 cells it was 16 nM.

Regarding `CC1(C)CCC(CN2CCN(c3ccc(C(=O)NS(=O)(=O)c4cc5c(c([N+](=O)[O-])c4)N[C@@H](CN=S4(=O)CCOCC4)CO5)c(Oc4cnc5[nH]ccc5c4)c3)CC2)=C(c2ccc(Cl)cc2)C1` [Example 2-77, (S)-2-((1H-pyrrolo[2,3-b]pyridin-5-yl)oxy)-4-(4-((4′-chloro-5,5-dimethyl-3,4,5,6-tetra-hydro-[1,1′-biphenyl]-2-yl)methyl)piperazin-1-yl)-N-((5-nitro-3-(((4-oxido-1,4λ^6-oxa-thian-4-ylidene)amino)methyl)-3,4-dihydro-2H-benzo[b][1,4]oxazin-7-yl)sulfonyl)ben-zamide], the IC50 was found to be 50 nM with RS4;11 cells and 602 nM in the experiment with DOHH2 cells.

On to `C[C@H]1COCCN1C[C@@H]1COc2cc(S(=O)(=O)NC(=O)c3ccc(N4CCN(CC5=C(c6ccc(Cl)cc6)CC(C)(C)CC5)CC4)cc3Oc3cnc4[nH]ccc4c3)cc([N+](=O)[O-])c2N1` [Example 2-80, 2-((1H-pyrrolo[2,3-b]pyridin-5-yl)oxy)-4-(4-((4′-chloro-5,5-dimethyl-3,4,5,6-tetrahydro-[1,1′-biphenyl]-2-yl)methyl)piperazin-1-yl)-N-(((R)-3-(((S)-3-methylmorpholino)meth-yl)-5-nitro-3,4-dihydro-2H-benzo[b][1,4]oxazin-7-yl)sulfonyl)benzamide], for which the results for the IC50 in the experiment with RS4;11 cells and in the experiment on DOHH2 cells were 7 nM and 49 nM, respectively.

Regarding `CC1(C)CCC(CN2CCN(c3ccc(C(=O)NS(=O)(=O)c4cc5c(c([N+](=O)[O-])c4)N[C@H](C4CCN(S(C)(=O)=O)CC4)CO5)c(Oc4cnc5[nH]ccc5c4)c3)CC2)=C(c2ccc(Cl)cc2)C1` [Example 2-225, (R)-2-((1H-pyrrolo[2,3-b]pyridin-5-yl)oxy)-4-(4-((4′-chloro-5,5-dimethyl-3,4,5,6-tetra-hydro-[1,1′-biphenyl]-2-yl)methyl)piperazin-1-yl)-N-((3-(1-(methylsulfonyl)piperidin-4-yl)-5-nitro-3,4-dihydro-2H-benzo[b][1,4]oxazin-7-yl)sulfonyl)benzamide], the 50% inhibitory concentration (IC50) with RS4;11 cells came out at 2 nM; in the experiment with DOHH2 cells, 15 nM.

Take `CC1(C)CCC(CN2CCN(c3ccc(C(=O)NS(=O)(=O)c4cc5c(c([N+](=O)[O-])c4)N[C@@H](CNC(=O)C4CCOCC4)CO5)c(Oc4cnc5[nH]ccc5c4)c3)CC2)=C(c2ccc(Cl)cc2)C1` [Example 2-54, (S)-N-((7-(N-(2-((1H-pyrrolo[2,3-b]pyridin-5-yl)oxy)-4-(4-((4′-chloro-5,5-dimethyl-3,4,5,6-tetrahydro-[1,1′-biphenyl]-2-yl)methyl)piperazin-1-yl)benzoyl)sulfamoyl)-5-nitro-3,4-dihydro-2H-benzo[b][1,4]oxa-zin-3-yl)meth-yl)tetrahydro-2H-pyran-4-carboxamide]: the IC50 turned out to be 61 nM in the experiment on RS4;11 cells and 134 nM in the experiment with DOHH2 cells.

With `CC1(C)CCC(CN2CCN(c3ccc(C(=O)NS(=O)(=O)c4cc5c(c([N+](=O)[O-])c4)N[C@H](CCN=S4(=O)CCCC4)CO5)c(Oc4cnc5[nH]ccc5c4)c3)CC2)=C(c2ccc(Cl)cc2)C1` [Example 2-73, (R)-2-((1H-pyrrolo[2,3-b]pyridin-5-yl)oxy)-4-(4-((4′-chloro-5,5-dimethyl-3,4,5,6-tetra-hydro-[1,1′-biphenyl]-2-yl)methyl)piperazin-1-yl)-N-((5-nitro-3-(2-((1-oxidotetrahydro-1λ^6-thiophen-1-ylidene)amino)ethyl)-3,4-dihydro-2H-benzo[b][1,4]oxazin-7-yl)sulfonyl)benzamide], the figures for the IC50 with RS4;11 cells and with DOHH2 cells were 79 nM and 69 nM, respectively.

For `CC1(C)CCC(CN2CCN(c3ccc(C(=O)NS(=O)(=O)c4cc5c(c([N+](=O)[O-])c4)N[C@H](C4CCNCC4)CO5)c(Oc4cnc5[nH]ccc5c4)c3)CC2)=C(c2ccc(Cl)cc2)C1` [Example 2-226, (R)-2-((1H-pyrrolo[2,3-b]pyridin-5-yl)oxy)-4-(4-((4′-chloro-5,5-dimethyl-3,4,5,6-tetra-hydro-[1,1′-biphenyl]-2-yl)methyl)piperazin-1-yl)-N-((5-nitro-3-(piperidin-4-yl)-3,4-dihydro-2H-benzo[b][1,4]oxazin-7-yl)sulfo-nyl)benzamide], the half-inhibitory concentration (IC50) is 10 nM in the experiment with RS4;11 cells and 48 nM in the experiment on DOHH2 cells.

For `CC1(C)CCC(CN2CCN(c3ccc(C(=O)NS(=O)(=O)c4cc5c(c([N+](=O)[O-])c4)NC(CC4CCOCC4)CO5)c(Oc4cnc5[nH]ccc5c4)c3)CC2)=C(c2ccc(Cl)cc2)C1` (stereo not shown) [Example 2-180, 2-((1H-pyrrolo[2,3-b]pyridin-5-yl)oxy)-4-(4-((4′-chloro-5,5-dimethyl-3,4,5,6-tetrahydro-[1,1′-biphenyl]-2-yl)methyl)piperazin-1-yl)-N-((5-nitro-3-((tetrahydro-2H-pyran-4-yl)methyl)-3,4-dihydro-2H-benzo[b][1,4]oxazin-7-yl)sulfonyl)benzamide], the IC50 was 8 nM in the experiment with RS4;11 cells and 15 nM in the experiment on DOHH2 cells.

The values above are taken from patent US11091478B2 (Fochon Pharmaceuticals, Ltd., priority 2017, dated 2021).
